# Read-outs that look alike come from different tables or passages of the source. Positions of bridges follow the written chain, without caps; N, C: chain ends. Residues, ends and D or L forms follow the SMILES beside them.
# How the values were obtained:
# [1] = biological target: T1, SA AgrC-I (Staphylococcus aureus, UniProt O07911); assay: β-Lactamase assay, reporter strain RN10829 (P2-agrA:P3-blaZ) with pagrC-I; format: cell-based
# Description: The β-lactamase reporter strain RN10829 (P2-agrA:P3-blaZ) ([62]), with pagrC-I ([63]), pagrC-II, pagrC-III, or pagrC-IV ([11]), substituting the native agr locus with a chromosomal integration of P2-agrA and P3-blaZ and a plasmid from which a wild-type variant of the corresponding AgrC is expressed, was used to assess inhibition and activation of the AgrC receptor via β-lactamase activity in response to varying concentrations of the QS modulating peptides. Overnight cultures of the reporter strains in TSB medium were diluted 1:250 in fresh TSB medium and grown to OD600 = 0.35–0.40 (early exponential phase) at 37°C. Peptide solutions (10 μL) in 1:10 serial dilutions from DMSO stock solutions (1 mM) in TSB medium (final concentrations = 10 μM–10 pM) were added to each well of a clear 96-well plate as well as solutions (10 μL) of cognate AIP (final concentration = 100 nM) in TSB medium followed by 80 μL of bacterial cells. […] The 96-well plates were incubated at 37°C shaking at 200 rpm for 1 h and immediately frozen down at −80°C to minimize growth during nitrocefin treatment. Next, the 96-well plates were thawed, and OD600 values were determined using a plate reader followed by the addition of 50 μL of nitrocefin solution to the wells (final concentration = 33.3 μg/mL). β-Lactamase activity was monitored at OD486 every 20 s for 10 min at 37°C using a plate-reader. Linear nitrocefin conversion rates were plotted to obtain IC50 values by non-linear regression with variable slope using GraphPad Prism 10.4 software. Assays were performed at least as duplicate determinations in biological triplicate.
# [2] = biological target: T2, SA AgrC-II (Staphylococcus aureus, UniProt O33587); assay: β-Lactamase assay, reporter strain RN10829 (P2-agrA:P3-blaZ) with pagrC-II; format: cell-based
# Procedure, shortened: (§1)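 S. aureus RN10829 P2-agrA:P3-blaZ reporter carrying a plasmid for the matching wild-type AgrC, grown in TSB to OD600 0.35–0.40. Cells met peptides (10 μM–10 pM) plus cognate AIP at 100 nM for 1 h at 37°C, then nitrocefin (33.3 μg/mL) turnover was read at OD486 for 10 min; IC50 from linear rates.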
# [3] = biological target: T3, SA AgrC-III (Staphylococcus aureus, UniProt O33590); assay: β-Lactamase assay, reporter strain RN10829 (P2-agrA:P3-blaZ) with pagrC-III; format: cell-based
# Procedure, shortened: as §1
# [4] = biological target: T4, SA AgrC-IV (Staphylococcus aureus, UniProt Q309Z2); assay: β-Lactamase assay, reporter strain RN10829 (P2-agrA:P3-blaZ) with pagrC-IV; format: cell-based; settings: 100 nM cognate AIP; ± SEM; -b = no inhibition recorded at the highest AIP concentration tested; -a = only partial inhibition observed; this study (curves in Fig. S22)
# Procedure, shortened: as §1
# [5] = tested on: S. aureus (SA) agr-I; settings: b-lactamase, cited from earlier work
# [6] = tested on: S. aureus (SA) agr-II; settings: b-lactamase, cited from earlier work
# [7] = tested on: S. aureus (SA) agr-III; settings: b-lactamase, cited from earlier work
# [8] = tested on: S. aureus (SA) agr-IV; settings: b-lactamase, cited from earlier work
# [9] = biological target: T1, SA AgrC-I; settings: ± SEM; determined previously; ref (1); read-out: EC50, SA AgrC-I, b-lactamase assay; cited from earlier work
# [10] = biological target: T2, SA AgrC-II; settings: 100 nM cognate AIP; ± SEM; -b = no inhibition recorded at the highest AIP concentration tested; determined previously; ref (1); read-out: IC50, SA AgrC-II, b-lactamase assay; cited from earlier work
# [11] = biological target: T3, SA AgrC-III; settings: 100 nM cognate AIP, ± SEM, determined previously, ref (1), cited from earlier work
# [12] = biological target: T4, SA AgrC-IV; settings: ± SEM, determined previously, ref (1), cited from earlier work; for IC50: 100 nM cognate AIP, -b = no inhibition recorded at the highest AIP concentration tested, read-out: IC50, SA AgrC-IV, b-lactamase assay
# [13] = tested on: S. aureus (SA) agr-II; settings: fluorescence; ref (5); cited from earlier work
# [14] = tested on: S. aureus (SA) agr-III; settings: fluorescence; ref (5); cited from earlier work
# [15] = tested on: S. aureus (SA) agr-II; set-up: method as in ref (5) (a number printed in a supplementary file, which may have a reference list of its own: not looked up in the article's list); settings: hemolysis; ref (5); cited from earlier work
# [16] = tested on: S. aureus (SA) agr-III; set-up: method as in ref (5) (a number printed in a supplementary file, which may have a reference list of its own: not looked up in the article's list); settings: hemolysis; ref (5); cited from earlier work
# [17] = tested on: S. epidermidis (SE) agr-I; settings: fluorescence; ref (11); cited from earlier work
# [18] = tested on: S. epidermidis (SE) agr-I; set-up: method as in ref (9) (a number printed in a supplementary file, which may have a reference list of its own: not looked up in the article's list); settings: HPLC d-toxin, ref (9); cited from earlier work
# [19] = biological target: S. aureus agr-I (Staphylococcus aureus, UniProt O07911); assay: Fluorescence reporter assay for agr interference, screening and IC50 (AH1677, P3-YFP); format: cell-based; settings: fluorescent reporter strain; peptides tested at 1000, 50, 2.5, 0.125 nM or in dose-response
# Procedure: (§2) Peptides were evaluated for the ability to interfere with agr-mediated quorum sensing in S. aureus (AH1677, AH430, AH1747, and AH1872 for agr-I–IV, respectively) ([40]) using reporter strains expressing yellow fluorescent protein (YFP) upon agr activation. Interference with agr-mediated quorum sensing in S. epidermidis (AH3408, AH3623, and AH3409 for agr-I–III, respectively) ([45]), and S. lugdunensis (AH4031 for agr-I) ([37]) was evaluated using reporter strains expressing superfolder green fluorescent protein (sGFP) upon agr activation. Overnight cultures of the reporter strains were grown in TSB medium containing chloramphenicol (CAM, 10 μg/mL for S. aureus) or erythromycin (ERM, 10 μg/mL of S. epidermidis and S. lugdunensis) and diluted 1:100 in fresh TSB medium containing the same antibiotic. Assays were performed in sterile black 96-well plates with a clear bottom. […] DMSO stock solutions of peptides (1 mM) were diluted in TSB media and added (15 μL) in technical triplicate to the 96-well plate, followed by diluted bacterial overnight cultures (135 μL). […] Wells containing 150 μL TSB medium were used to measure background fluorescence. The 96-well plates were incubated in a humidified incubator at 37°C shaking at 1,000 rpm for 22–24 h and fluorescence (for GFP: excitation 479 nm, emission 520 nm; for YFP: excitation 500 nm, emission 541 nm; automatic gain), and OD600 values were subsequently measured using a plate reader. Background fluorescence was subtracted from all wells and further normalized to the corresponding OD600 value of the respective wells. The average fluorescence of control wells was used as a relative measure for 100% activation of the agr-circuit, and bar graphs were generated using GraphPad Prism 10.4 software. All assays were performed in at least a biological duplicate.
# (§3) Overnight cultures of the reporter strains were grown in TSB medium containing chloramphenicol (CAM, 10 μg/mL for S. aureus) or erythromycin (ERM, 10 μg/mL of S. epidermidis and S. lugdunensis) and diluted 1:100 in fresh TSB medium containing the same antibiotic. Assays were performed in sterile black 96-well plates with clear bottoms. Peptide solutions (15 μL) in 1:5 serial dilutions from DMSO stock solutions (1 mM) in TSB medium were added to the 96-well plate in technical duplicate followed by diluted bacterial overnight cultures (135 μL). […] Wells containing 150 μL TSB medium were used to measure background fluorescence. The 96-well plates were incubated in a humidified incubator at 37°C shaking at 1,000 rpm for 22–24 h and fluorescence (for GFP: excitation 479 nm, emission 520 nm; for YFP: excitation 500 nm, emission 541 nm; automatic gain), and OD600 values were subsequently measured using a plate reader. Background fluorescence was subtracted from all wells and further normalized to the corresponding OD600 value of the respective wells. The average fluorescence of control wells was used as a relative measure for 100% activation of the agr-circuit. Relative agr activity was plotted to obtain IC50 values by non-linear regression with variable slope using GraphPad Prism 10.4 software. All assays were performed in biological triplicate.
# [20] = biological target: S. aureus agr-II (Staphylococcus aureus, UniProt O33587); assay: cell-based; settings: fluorescent reporter strain; peptides tested at 1000, 50, 2.5, 0.125 nM or in dose-response
# Procedure, shortened: (§4)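 Fluorescence of the agr-driven P3 reporter, read after 22–24 h of growth with peptide at 37°C, was corrected for medium background and divided by OD600. Activity is given relative to wells without peptide, and IC50 values were fitted by non-linear regression with variable slope.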
# [21] = biological target: S. aureus agr-III (Staphylococcus aureus, UniProt O33590); assay: cell-based; settings: fluorescent reporter strain; peptides tested at 1000, 50, 2.5, 0.125 nM or in dose-response
# Procedure, shortened: as §4
# [22] = biological target: S. lugdunensis agr-I (Staphylococcus lugdunensis, UniProt Q8VSW5); assay: cell-based; settings: fluorescent reporter strain; peptides tested at 1000, 50, 2.5, 0.125 nM or in dose-response
# Procedure, shortened: as §4
# [23] = biological target: S. epidermidis agr-I (Staphylococcus epidermidis, UniProt Q5HMY3); assay: cell-based; format: cell-based; settings: fluorescent reporter strain; peptides tested at 1000, 50, 2.5, 0.125 nM or in dose-response
# Procedure: as §2, §3
# [24] = biological target: S. aureus agr-IV (Staphylococcus aureus, UniProt Q309Z2); assay: cell-based; format: cell-based; settings: fluorescent reporter strain; peptides tested at 1000, 50, 2.5, 0.125 nM or in dose-response
# Procedure, shortened: as §4
# [25] = biological target: S. epidermidis agr-II (Staphylococcus epidermidis, UniProt Q8VSX5); assay: cell-based; format: cell-based; settings: fluorescent reporter strain; peptides tested at 1000, 50, 2.5, 0.125 nM or in dose-response
# Procedure, shortened: as §4
# [26] = biological target: S. epidermidis agr-III (Staphylococcus epidermidis, UniProt Q8VSX2); assay: cell-based; format: cell-based; settings: fluorescent reporter strain; peptides tested at 1000, 50, 2.5, 0.125 nM or in dose-response
# Procedure, shortened: as §4
# [27] = -b = no inhibition recorded at the highest AIP concentration tested, read-out: IC50, SA AgrC-III, b-lactamase assay
# T4 sequence (Q309Z2 entry or part of it): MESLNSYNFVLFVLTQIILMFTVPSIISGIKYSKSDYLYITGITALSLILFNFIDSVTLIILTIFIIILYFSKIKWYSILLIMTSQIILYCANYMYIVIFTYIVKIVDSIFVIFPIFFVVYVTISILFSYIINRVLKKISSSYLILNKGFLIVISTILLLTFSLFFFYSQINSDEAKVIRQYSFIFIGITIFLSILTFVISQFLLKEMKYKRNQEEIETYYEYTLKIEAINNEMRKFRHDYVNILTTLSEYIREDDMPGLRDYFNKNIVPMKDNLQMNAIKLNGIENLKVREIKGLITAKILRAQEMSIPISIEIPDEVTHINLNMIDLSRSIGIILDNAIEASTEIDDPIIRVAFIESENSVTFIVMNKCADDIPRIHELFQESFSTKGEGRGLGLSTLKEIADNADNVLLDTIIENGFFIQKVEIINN
# T3 sequence (O33590 entry or part of it): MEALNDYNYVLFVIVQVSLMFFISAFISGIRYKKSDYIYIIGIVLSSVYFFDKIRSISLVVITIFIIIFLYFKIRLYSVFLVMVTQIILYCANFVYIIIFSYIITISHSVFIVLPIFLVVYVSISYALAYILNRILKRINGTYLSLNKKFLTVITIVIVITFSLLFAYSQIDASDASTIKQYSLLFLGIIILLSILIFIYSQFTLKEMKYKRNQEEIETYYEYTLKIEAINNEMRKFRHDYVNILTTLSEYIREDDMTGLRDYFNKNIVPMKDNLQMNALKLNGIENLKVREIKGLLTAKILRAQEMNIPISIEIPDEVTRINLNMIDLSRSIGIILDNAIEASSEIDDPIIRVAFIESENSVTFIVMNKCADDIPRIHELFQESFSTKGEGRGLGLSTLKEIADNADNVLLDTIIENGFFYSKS
# T2 sequence (O33587 entry or part of it): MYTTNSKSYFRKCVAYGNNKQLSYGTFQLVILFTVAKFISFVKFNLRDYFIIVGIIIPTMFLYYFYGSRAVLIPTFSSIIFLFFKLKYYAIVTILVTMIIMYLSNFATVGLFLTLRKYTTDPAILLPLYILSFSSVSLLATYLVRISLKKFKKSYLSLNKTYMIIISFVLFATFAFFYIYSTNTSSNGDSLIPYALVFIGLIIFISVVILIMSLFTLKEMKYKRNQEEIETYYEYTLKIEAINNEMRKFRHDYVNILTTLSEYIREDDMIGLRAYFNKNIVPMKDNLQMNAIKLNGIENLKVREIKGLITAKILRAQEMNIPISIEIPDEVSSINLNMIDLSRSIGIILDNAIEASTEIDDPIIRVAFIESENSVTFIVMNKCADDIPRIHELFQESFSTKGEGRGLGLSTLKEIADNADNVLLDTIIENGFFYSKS
# Chain of S. epidermidis agr-I (Q5HMY3 entry or part of it): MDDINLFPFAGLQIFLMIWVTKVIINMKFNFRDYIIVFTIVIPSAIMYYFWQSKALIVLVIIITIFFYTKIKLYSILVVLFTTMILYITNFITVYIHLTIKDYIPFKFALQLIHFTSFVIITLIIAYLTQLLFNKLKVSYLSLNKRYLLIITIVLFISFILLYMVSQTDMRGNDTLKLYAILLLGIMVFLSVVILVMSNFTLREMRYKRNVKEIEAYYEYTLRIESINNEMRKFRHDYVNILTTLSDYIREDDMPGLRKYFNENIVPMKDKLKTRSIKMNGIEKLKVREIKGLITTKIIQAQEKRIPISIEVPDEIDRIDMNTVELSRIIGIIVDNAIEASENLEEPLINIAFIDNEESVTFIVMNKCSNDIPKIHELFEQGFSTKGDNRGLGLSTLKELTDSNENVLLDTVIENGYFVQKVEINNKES
# Chain of S. epidermidis agr-III (Q8VSX2 entry or part of it): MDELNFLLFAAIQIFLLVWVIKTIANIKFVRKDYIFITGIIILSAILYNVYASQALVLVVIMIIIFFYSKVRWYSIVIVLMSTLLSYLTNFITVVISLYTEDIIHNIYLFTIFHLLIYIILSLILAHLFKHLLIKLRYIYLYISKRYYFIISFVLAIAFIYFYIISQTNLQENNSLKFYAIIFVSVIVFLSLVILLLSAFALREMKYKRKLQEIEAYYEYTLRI
# T1 sequence (O07911 entry or part of it): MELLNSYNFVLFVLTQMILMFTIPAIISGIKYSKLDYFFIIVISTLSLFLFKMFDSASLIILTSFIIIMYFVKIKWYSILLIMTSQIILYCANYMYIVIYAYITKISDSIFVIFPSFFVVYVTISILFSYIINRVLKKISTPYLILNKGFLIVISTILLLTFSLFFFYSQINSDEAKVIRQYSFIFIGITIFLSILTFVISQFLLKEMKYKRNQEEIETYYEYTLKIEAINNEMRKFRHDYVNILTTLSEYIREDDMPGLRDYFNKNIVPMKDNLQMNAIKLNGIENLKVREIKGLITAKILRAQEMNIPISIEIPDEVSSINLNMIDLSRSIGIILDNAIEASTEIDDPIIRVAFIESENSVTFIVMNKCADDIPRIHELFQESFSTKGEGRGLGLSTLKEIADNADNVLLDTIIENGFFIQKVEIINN
# Chain of S. aureus agr-I (O07911 entry or part of it): as above
# Chain of S. aureus agr-IV (Q309Z2 entry or part of it): as the sequence (Q309Z2 entry or part of it) above
# Chain of S. lugdunensis agr-I (Q8VSW5 entry or part of it): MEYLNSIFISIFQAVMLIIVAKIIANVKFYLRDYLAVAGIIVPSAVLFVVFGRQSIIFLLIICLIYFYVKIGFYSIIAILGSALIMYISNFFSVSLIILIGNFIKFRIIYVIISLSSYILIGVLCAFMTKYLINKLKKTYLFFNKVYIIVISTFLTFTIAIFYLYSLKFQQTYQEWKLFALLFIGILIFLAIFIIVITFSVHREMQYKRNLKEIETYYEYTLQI
# Chain of S. aureus agr-III (O33590 entry or part of it): as the sequence (O33590 entry or part of it) above
# Chain of S. epidermidis agr-II (Q8VSX5 entry or part of it): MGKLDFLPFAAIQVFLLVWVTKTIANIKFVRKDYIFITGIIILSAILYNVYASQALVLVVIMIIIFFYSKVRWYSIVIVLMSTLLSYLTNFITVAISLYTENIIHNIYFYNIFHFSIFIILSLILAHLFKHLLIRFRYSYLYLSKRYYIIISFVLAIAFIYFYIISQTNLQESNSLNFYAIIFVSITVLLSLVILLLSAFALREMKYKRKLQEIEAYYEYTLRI
# Chain of S. aureus agr-II (O33587 entry or part of it): as the sequence (O33587 entry or part of it) above
Molecule,IC50 [10] [nM],"QS interaction in words (inhibition / activation), S. aureus agr-I [19]","QS interaction in words (inhibition / activation), S. aureus agr-II [20]","QS interaction in words (inhibition / activation), S. aureus agr-III [21]","QS interaction in words (inhibition / activation), S. lugdunensis agr-I [22]","QS interaction in words (inhibition / activation), S. epidermidis agr-I [23]","QS interaction in words (inhibition / activation), S. aureus agr-IV [24]","QS interaction in words (inhibition / activation), S. epidermidis agr-II [25]","QS interaction in words (inhibition / activation), S. epidermidis agr-III [26]","IC50 [11, 27] [nM]",IC50 [12] [nM],other results
"CC[C@H](C)[C@H](NC(=O)[C@@H](N)CCCNC(=N)N)C(=O)N1CCC[C@H]1C(=O)N[C@H](C(=O)N[C@H]1COC(=O)[C@H](Cc2ccccc2)NC(=O)[C@H](Cc2ccccc2)NC(=O)CNC(=O)[C@H]([C@@H](C)O)NC1=O)[C@@H](C)O [compound 31, S. intermedius AIP-I] (H-RIPTSTGFF; ester 5-C)",,,,,,,,,,,,"IC50 [1]: 87 ± 20 nM; IC50 [2]: > 1000 nM; IC50 [3]: 104 ± 20 nM; IC50, SA AgrC-IV, b-lactamase assay [4]: -b; inhibition from supernatant, SA agr-I ([5]; from supernatant, ref (16)): 80–100%; inhibition from supernatant, SA agr-II ([6]; from supernatant, ref (16)): 40–90%; inhibition from supernatant, SA agr-III ([7]; from supernatant, ref (16)): 60–100%; inhibition from supernatant, SA agr-IV ([8]; from supernatant, ref (16)): 10–60%"
S. aureus AIP-IV [compound 4],47 ± 9,,,,,,,,,,,"EC50 [9]: 59 ± 2 nM; IC50 ([11]; only partial inhibition observed, read-out: IC50, SA AgrC-III, b-lactamase assay, only partial inhibition observed (footnote a)): 9.8 ± 0.2 nM; EC50 ([12]; read-out: EC50, SA AgrC-IV, b-lactamase assay): 2.6 ± 0.2 nM; EC50 ([5]; ref (4)): 62 nM; IC50 ([6]; ref (4)): 4 nM; IC50 ([7]; ref (4)): 1 nM; EC50 ([8]; ref (4)): 13 nM; EC50 ([8]; ref (7)): 7.9 nM; IC50 [13]: 0.37 nM; IC50 [14]: 0.46 nM; IC50 [15]: 0.09 nM; IC50 [16]: 1.49 nM; IC50 [17]: > 1000 nM; inhibition at 1000 nM, SE agr-I [18]: 40%"
S. chromogenes AIP-I [compound 27],200 ± 13,potently inhibited,potently inhibited,potently inhibited,only weakly inhibited,potently inhibited,potently inhibited,potently inhibited,potently inhibited,60 ± 13,350 ± 85,
S. hyicus AIP-I [compound 26],350 ± 90,potently inhibited,potently inhibited,potently inhibited,only weakly inhibited,potently inhibited,potently inhibited,potently inhibited,potently inhibited,4 ± 0.8,180 ± 33,
